The subject of series [1] is full-thickness skin wound models. The experiment in a line: Wound size-reducing effect in skin wound mouse model. It is filed as in vivo, BALB/c female mice. To be noted: 6 days after administration. From the text:
(§1) Commercially available wound healing agents, Madecassol care ointment (Dongguk Pharmaceuticals, Korea) and Easyef cell regenerating ointment (Daewoong Pharmaceuticals) were used as positive control groups.
(§2) In detail, 7-week-old BALB/c female mice (DooYeol Biotech) were acclimated for 1 week, and then anesthetized by an intraperitoneal injection of a mixture of Ketamine and rumpun. The dorsal hair was removed using an electric razor and a hair removal cream (Veet). Povidone and 70% ethanol were used to disinfect the area from which the epidermis was to be removed, and a 5-mm biopsy punch was used to apply a full-thickness wound on both sides of the lower buttocks, while avoiding the spine of the mouse. To prevent spontaneous wound contraction by the superficial muscle of the mouse, a silicone ring with an outer diameter of 15 mm and an inner diameter of 8 mm was attached around the wounded area using suture threads.
Thereafter, to the wound site, phosphate buffered saline as the negative control was administered, and Madecassol care and Easyef cell regenerating ointments as the positive controls were administered. […]
In detail, the reduced wound size was calculated as the size of wound area by analyzing an image of the wound at 0 day and 6 days after administration of the novel formulations. The size of wound area was quantified by using Photoshop.

The test system is the same in series [2]. The experiment in a line: Angiogenic effect in skin wound mouse model. It is filed as in vivo, BALB/c female mice. To be noted: biopsy 6 days after administration, FIG. 5. An excerpt: In detail, increased angiogenesis was confirmed by examining an image of angiogenesis on the skin tissue with the naked eye after biopsy of the skin tissue of the wound area 6 days after administration of the novel formulations.

The test system is the same in series [3]. The experiment in a line: Epidermal regeneration effect (epidermal gaps, H&E) in skin wound mouse model. It is filed as in vivo, BALB/c female mice. To be noted: 6 days after administration, compared to the control groups.
Description: as §1, §2
(§3) Thereafter, to the wound site, phosphate buffered saline as the negative control was administered, and Madecassol care and Easyef cell regenerating ointments as the positive controls were administered. […] Specifically, each 30 μl of SP and each novel formulations were administered to the full-thickness wound once a day for 5 days.

The test system is the same in series [4]. The experiment in a line: Granulation tissue maturation (H&E) in skin wound mouse model. To be noted: 6 days after administration, compared to the negative control group. It is filed as in vivo, BALB/c female mice.
Description: as §1, §2, §3

The nature of series [5]: Stability of SP over time in cell growth media KGM and FGM (SP ELISA kit). It is filed as physicochemical. To be noted: stored in KGM and FGM media, 0-24 hrs. Here is the method:
SP and SP of SP+HEC+polysorbate 80+sodium thiosulfate formulation were stored in cell growth media for human epithelial keratinocyte (HEK) culture (keratinocyte growth media; KGM) and human dermal fibroblast (HDF) culture (fibroblast growth media; FGM).
Each sample was taken out of the media after a predetermined period of time (0 hr, 3 hrs, 6 hrs, 12 hrs and 24 hrs), and diluted with phosphate buffered saline, and then the SP content in each sample was analyzed using SP ELISA kit.
On the technique in general: ELISA stands for enzyme-linked immunosorbent assay.

The nature of series [6]: Stability of SP at different storage temperatures (SP ELISA kit). To be noted: stored at 60° C., 37° C., RT, and 4° C. for 4 weeks. It is filed as physicochemical. As to the method:
Further, it was examined with respect to whether SP stability in each sample was maintained at different temperatures. […] The samples before storage were used as control groups. SP stability was analyzed using SP ELISA kit.

The test system of series [7] is human dermal fibroblast cells. To be noted: for cell proliferation rate: 48 hours, MTT.
Description: The cell proliferative effect of SP was analyzed by MTT assay.
In detail, 100 μl of a human dermal fibroblast cell suspension of 3×10^4 CFU/ml was put in a 96-well culture plate, and incubated for 24 hours. FGM medium (fibroblast growth medium; fibroblast basal medium containing hFGF-B, insulin, fetal bovine serum (FBS), gentamicin, and amphotericin-B) were removed, and then 180 μl of fresh FGM medium was dispensed into each well, and then 20 μl of SP diluted with phosphate buffered saline (PBS) was inoculated by varying its concentration (0.1, 1, 5, 10, 50, and 100 μg/ml).
Meanwhile, 20 μl of phosphate buffered saline was used as a negative control group. After inoculation, cells were incubated at 37° C. for 48 hours, and then the medium, SP, and negative control group were removed. The cells were washed with the phosphate buffered saline three times. 90 μl of FGM medium was mixed with 10 μl of MTT solution (0.5 mg/ml), and treated to each well, and allowed to react at 37° C. for 4 hours.
Finally, the cells were washed with the phosphate buffered saline, and stirred in 150 μl of isopropyl alcohol solution for 10 minutes, and absorbance at 570 nm was measured.

Entries after “also recorded” stand apart in the source; their conditions may differ. Read-outs that look alike come from different tables or passages of the source.

Regarding `CSCC[C@H](NC(=O)[C@H](CC(C)C)NC(=O)CNC(=O)[C@H](Cc1ccccc1)NC(=O)[C@H](Cc1ccccc1)NC(=O)[C@H](CCC(N)=O)NC(=O)[C@H](CCC(N)=O)NC(=O)[C@@H]1CCCN1C(=O)[C@H](CCCCN)NC(=O)[C@@H]1CCCN1C(=O)[C@@H](N)CCCNC(=N)N)C(N)=O` [SP], the “size of the wound examined with the naked eye” value in series [1] is “no significant difference in the wound size; also recorded: slight difference”. Moreover, the “wound area (size of wound area quantified)” value in series [1] (30 μl once a day for 5 days, topical to wound) was not below 40%. Further, the “angiogenesis on the skin tissue (naked eye)” value in series [2] is given as “insignificant”. The epidermal gaps entry in series [3] is reported as “about 60%”. In addition, in series [4], the granulation tissue maturation result was “compact granulation tissue formation”. Further, the “SP content over time (SP stability)” value in series [5] is given as “reduction in the SP content over time”. Also, in series [6], the “SP content according to temperature conditions (SP stability)” value is on record as “lower SP content than the SP+HEC+polysorbate 80+sodium thiosulfate formulation; also recorded: changes in the SP content according to temperature changes”. In addition, in series [7], the cytotoxicity result is “without cytotoxicity”. Also, the cell proliferation rate in series [7] (SP 5 μg/ml) is not below 200%; in series [7] (all concentration groups of 0.1 μg/ml to 100 μg/ml SP), not below 170%. Besides, the “proliferation rate compared to the negative control group” value in series [7] (SP 5 μg/ml, negative control phosphate buffered saline) is not below 2.2 times.

These data come from patent publication US10596224B2, “Method of treating a wound, comprising the step of administering a composition including a substance P” (Biosolution Co., Ltd, priority 2016, dated 2020).
